Laboratory results taken from ChEMBL document CHEMBL1130893, “Inhibition of HIV integrase by novel nucleotides bearing tricyclic bases” (Bioorg Med Chem Lett, 1998).

Assays:
[1] = biological target: T1, Human immunodeficiency virus type 1 integrase (Human immunodeficiency virus 1, UniProt Q7ZJM1); test: Inhibitory activity against HIV integrase in the strand transfer step
[2] = biological target: T1, Human immunodeficiency virus type 1 integrase; test: Inhibitory activity against HIV integrase in the 3' processing step

T1 sequence (Q7ZJM1 whole entry): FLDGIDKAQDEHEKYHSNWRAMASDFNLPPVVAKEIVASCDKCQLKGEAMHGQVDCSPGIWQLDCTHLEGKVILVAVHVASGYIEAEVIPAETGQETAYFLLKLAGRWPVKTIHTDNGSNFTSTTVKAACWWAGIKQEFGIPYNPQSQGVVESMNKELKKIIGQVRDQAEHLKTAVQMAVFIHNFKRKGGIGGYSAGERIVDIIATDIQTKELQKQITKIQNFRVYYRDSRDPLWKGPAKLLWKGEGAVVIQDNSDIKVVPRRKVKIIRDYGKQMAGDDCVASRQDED

Compound | IC50 [1] [µM] | IC50 [2] [µM]
Nc1ncnc2c1ccc1ncn(C3COC(COP(=O)(O)O)C3)c12 (stereo not given) | 53 | 75
Nc1ncnc2cc3c(cc12)ncn3C1CCC(COP(=O)(O)O)O1 (stereo not given) | 550 | 750
Nc1ncnc2cc3c(cc12)ncn3C1COC(COP(=O)(O)O)C1 (stereo not given) | 68 | –
